Assay results published in patent US9999222B2, “Herbicidal combination comprising azines” (BASF SE, priority 2014, dated 2018).
Where “and” joins values, the source holds several entries; their conditions need not be identical. Identical values can stand only once. Like-named read-outs stand apart in the source and are kept apart here.

What was measured:
Assay in all cases: Greenhouse test, pre-emergence treatment
KCHSC = assay type: in vivo, Kochia scoparia; details: 20 DAT
Procedure, shortened: (§1)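 Seeds were sown in loamy sand with about 3.0% humus, and compounds in water were sprayed immediately after sowing, alone or as combinations formulated as 10% emulsion concentrates. Plants grew under hoods until rooted, at 10-25 °C or 20-35 °C by species, for 2 to 4 weeks. Damage was scored 0-100 (100 = no emergence or complete destruction), and Colby expected values were E=X+Y−(X·Y/100).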

BRADC = assay type: in vivo, Brachiaria decumbens; details: Urochloa decumbens, pre-emergence, read-out: observed % activity; for inhibition at 16 g/ha: 16 g ai/ha
Source text: (§2) The culture containers used were plastic flowerpots containing loamy sand with approximately 3.0% of humus as the substrate. The seeds of the test plants were sown separately for each species.
(§3) For the pre-emergence treatment, the active ingredients, which had been suspended or emulsified in water, were applied directly after sowing by means of finely distributing nozzles. The containers were irrigated gently to promote germination and growth and subsequently covered with transparent plastic hoods until the plants had rooted. This cover caused uniform germination of the test plants, unless this had been impaired by the active ingredients.
(§4) Depending on the species, the plants were kept at 10-25° C. or 20-35° C., respectively.
(§5) The test period extended over 2 to 4 weeks. During this time, the plants were tended, and their response to the individual treatments was evaluated.
(§6) Evaluation was carried out using a scale from 0 to 100. 100 means no emergence of the plants, or complete destruction of at least the aerial moieties, and 0 means no damage, or normal course of growth. A moderate herbicidal activity is given at values of at least 60, a good herbicidal activity is given at values of at least 70, and a very good herbicidal activity is given at values of at least 85.
(§7) The respective stated components a and b, and if appropriate, c were formulated as a 10% by weight strength emulsion concentrate and, with addition of the amount of solvent system, introduced into the spray liquor used for applying the active compound.
(§8) In the examples, the solvent used was water.
(§9) In the examples below, using the method of S. R. Colby (1967) “Calculating synergistic and antagonistic responses of herbicide combinations”, Weeds 15, p. 22ff., the value E, which is expected if the activity of the individual active compounds is only additive, was calculated. E=X+Y−(X·Y/100) where • X=percent activity using active compound a at an application rate A; • Y=percent activity using active compound b at an application rate B; • E=expected activity (in %) by a+b at application rates A+B.
(§10) If the value found experimentally is higher than the value E calculated according to Colby, a synergistic effect is present.

IPOHE = assay type: in vivo, Ipomoea hederacea; details: Ipomoea hederacea, 480 h, 16 g ai/ha, 20 DAT, read-out: observed % activity
Procedure, shortened: as §1

EPHHL = assay type: in vivo, Euphorbia heterophylla; details: 20 DAT
Procedure, shortened: as §1

PHACA = assay type: in vivo, Phalaris canariensis; details: for inhibition at 8 g/ha / inhibition at 16 g/ha: Phalaris canariensis, pre-emergence, read-out: observed % activity; for inhibition at 8 g/ha: 8 g ai/ha
Source text: as §2, §3, §4, §5, §6, §7, §8, §9, §10

POLCO = assay type: in vivo, Polygonum convolvulus
Procedure, shortened: as §1

SIDRH = assay type: in vivo, Sida rhombifolia; details: 20 DAT
Procedure, shortened: as §1

GERPU = assay type: in vivo, Geranium pusillum; details: 20 DAT
Procedure, shortened: as §1

LOLMU = assay type: in vivo, Lolium multiflorum; details: Lolium multiflorum, pre-emergence, read-out: observed % activity; for inhibition at 8 g/ha: 8 g ai/ha; for inhibition at 16 g/ha: 16 g ai/ha
Procedure, shortened: as §1

AVEFA = assay type: in vivo, Avena fatua; details: for observed % activity: 20 DAT
Source text: as §2, §3, §4, §5, §6, §7, §8, §9, §10

COMBE = assay type: in vivo, Commelina benghalensis; details: 20 DAT
Procedure, shortened: as §1

ALOMY = assay type: in vivo, Alopecurus myosuroides; details: Alopecurus myosuroides, pre-emergence, read-out: observed % activity; for inhibition at 8 g/ha: 8 g ai/ha; for inhibition at 16 g/ha: 16 g ai/ha
Procedure, shortened: as §1

GALAP = assay type: in vivo, Galium aparine
Procedure, shortened: as §1

Q: Which observed % activity (KCHSC; 8 g ai/ha) does the source give for `CC1(c2nc(N)nc(Nc3c(F)c(F)cc(F)c3F)n2)CCC1` [compound 8, 6-(1-methylcyclobutyl)-N4-(2,3,5,6-tetrafluorophenyl)-1,3,5-triazine-2,4-diamine] here?
A: 70% and 80%

Q: What about the observed % activity (KCHSC; 16 g ai/ha) of the same compound?
A: 80%

Q: What about the inhibition at 8 g/ha (KCHSC; Bassia scoparia, pre-emergence, 480 h, 8 g ai/ha, read-out: observed % activity) of the same compound?
A: 90%

Q: And the inhibition at 16 g/ha (KCHSC; Bassia scoparia, pre-emergence, 480 h, 16 g ai/ha, read-out: observed % activity)?
A: 85%

Q: And the inhibition at 16 g/ha (BRADC; 192 h, 8 DAT)?
A: 60%

Q: And the inhibition at 8 g/ha (BRADC; 480 h, 8 g ai/ha, 20 DAT)?
A: 78%

Q: And the inhibition at 16 g/ha (BRADC; 480 h, 20 DAT)?
A: 70%

Q: And the inhibition at 16 g/ha (IPOHE)?
A: 35%

Q: What about the observed % activity (EPHHL; 16 g ai/ha) of the same compound?
A: 65%

Q: And the inhibition at 8 g/ha (EPHHL; Euphorbia heterophylla, pre-emergence, 480 h, 8 g ai/ha, read-out: observed % activity)?
A: 45%

Q: And the inhibition at 16 g/ha (EPHHL; Euphorbia heterophylla, pre-emergence, 480 h, 16 g ai/ha, read-out: observed % activity)?
A: 70%

Q: And the observed % activity (PHACA; 16 g ai/ha, 20 DAT)?
A: 60%

Q: And the inhibition at 8 g/ha (PHACA; 192 h, 8 DAT)?
A: 25%

Q: What about the inhibition at 16 g/ha (PHACA; 192 h, 16 g ai/ha, 8 DAT) of the same compound?
A: 40%

Q: And the inhibition at 8 g/ha (PHACA; 480 h, 20 DAT)?
A: 28%

Q: What about the inhibition at 16 g/ha (PHACA; 480 h, 16 g ai/ha, 20 DAT) of the same compound?
A: 50%

Q: What about the observed % activity (POLCO; 8 g ai/ha, 20 DAT) of the same compound?
A: 0%

Q: What about the observed % activity (POLCO; 16 g ai/ha, 20 DAT) of the same compound?
A: 70%

Q: What about the inhibition at 8 g/ha (POLCO; Fallopia convolvulus, pre-emergence, 192 h, 8 g ai/ha, 8 DAT, read-out: observed % activity) of the same compound?
A: 65%

Q: What about the inhibition at 16 g/ha (POLCO; Fallopia convolvulus, pre-emergence, 480 h, 16 g ai/ha, 20 DAT, read-out: observed % activity) of the same compound?
A: 80%

Q: What about the observed % activity (SIDRH; 8 g ai/ha) of the same compound?
A: 80%

Q: And the observed % activity (SIDRH; 16 g ai/ha)?
A: 80%

Q: What about the inhibition at 8 g/ha (SIDRH; Sida rhombifolia, pre-emergence, 480 h, 8 g ai/ha, read-out: observed % activity) of the same compound?
A: 65%

Q: What about the inhibition at 16 g/ha (SIDRH; Sida rhombifolia, pre-emergence, 480 h, 16 g ai/ha, read-out: observed % activity) of the same compound?
A: 85%

Q: What about the observed % activity (GERPU; 8 g ai/ha) of the same compound?
A: 20%

Q: What about the observed % activity (GERPU; 16 g ai/ha) of the same compound?
A: 80%

Q: What about the inhibition at 16 g/ha (GERPU; Geranium pusillum, pre-emergence, 480 h, 16 g ai/ha, read-out: observed % activity) of the same compound?
A: 60%

Q: What about the inhibition at 8 g/ha (LOLMU; 192 h, 8 DAT) of the same compound?
A: 30%

Q: What about the inhibition at 16 g/ha (LOLMU; 192 h, 8 DAT) of the same compound?
A: 40%

Q: And the inhibition at 8 g/ha (LOLMU; 480 h, 20 DAT)?
A: 30%

Q: What about the inhibition at 16 g/ha (LOLMU; 480 h, 20 DAT) of the same compound?
A: 40%

Q: And the observed % activity (AVEFA; 8 g ai/ha)?
A: 5% and 10%

Q: What about the observed % activity (AVEFA; 16 g ai/ha) of the same compound?
A: 10%

Q: And the inhibition at 8 g/ha (AVEFA; Avena fatua, pre-emergence, 192 h, 8 g ai/ha, 8 DAT, read-out: observed % activity)?
A: 0%

Q: What about the inhibition at 16 g/ha (AVEFA; Avena fatua, pre-emergence, 192 h, 16 g ai/ha, 8 DAT, read-out: observed % activity) of the same compound?
A: 0%

Q: And the observed % activity (COMBE; 8 g ai/ha)?
A: 50%

Q: And the observed % activity (COMBE; 16 g ai/ha)?
A: 80%

Q: What about the inhibition at 8 g/ha (COMBE; Commelina benghalensis, pre-emergence, 480 h, 8 g ai/ha, read-out: observed % activity) of the same compound?
A: 60%

Q: And the inhibition at 16 g/ha (COMBE; Commelina benghalensis, pre-emergence, 480 h, 16 g ai/ha, read-out: observed % activity)?
A: 65%

Q: And the inhibition at 8 g/ha (ALOMY; 192 h, 8 DAT)?
A: 50%

Q: And the inhibition at 16 g/ha (ALOMY; 192 h, 8 DAT)?
A: 90%

Q: What about the inhibition at 8 g/ha (ALOMY; 480 h, 20 DAT) of the same compound?
A: 55%

Q: And the inhibition at 16 g/ha (ALOMY; 480 h, 20 DAT)?
A: 90%

Q: What about the observed % activity (GALAP; 8 g ai/ha, 20 DAT) of the same compound?
A: 20%

Q: What about the inhibition at 16 g/ha (GALAP; Galium aparine, pre-emergence, 192 h, 16 g ai/ha, 8 DAT, read-out: observed % activity) of the same compound?
A: 0%
